For data set [1] the following is noted: label language of products on the market; cited from earlier work.
For the next data set, the system named is human subject. Particulars: person, 2 grams oral, two 000 capsules, just before kayaking.
The mark [2] stands for this setting: 2 grams oral, two 000 capsules, immediately before exercise, all subjects, self-described.
Setting [3] is: subject with diabetes, 2 grams oral, self-described.
Setting [4] is: ingested before exercise, humans.

`O=C([O-])[O-].O=C([O-])[O-].OO.OO.OO.[Na+].[Na+].[Na+].[Na+]` [sodium percarbonate]: the “effects of ingestion per product poisoning warning” value in data set [1] is “may cause bloating, belching, irritation of the mouth and throat, nausea, vomiting, abdominal pain and diarrhea”. In the data set with human subjects (setting [2]), the endurance entry is reported as “increased”; the lactic acid burn entry is “reduced”; the “recovery during and after the session of exercise” value is given as “improved”; the strength result is on record as “increased”. The leg ache entry in the data set on human subjects (person, 2 grams oral before StairMaster cardio session after leg training, self-described) was “didn't ache as much as usual”. Also, the endurance levels entry in the data set on human subjects (person, 2 grams oral before StairMaster cardio session after leg training, without breaking fast) is listed as “definitely better than normal”. Besides, in the data set on human subjects (setting [3]), the breathing result was “feels good”; the recovery between sets entry is “quicker”; the “stamina/endurance through back workout and cardio” value is reported as “still feel like I could keep going”. Moreover, the “detrimental gastrointestinal effects (nausea, diarrhea)” value in the data set on humans (doses of 2-10 grams in humans, preferably capsule form) was “did not result in nausea, diarrhea or any other detrimental gastrointestinal effects”. In addition, in the data set with humans (setting [4]), the endurance result is “increased”; the “lactic acid "burn"” value is “decreased”; the recovery from exercise entry is reported as “improved”; the “stimulatory effects like those of caffeine and other stimulants” value is “did not have any appreciable stimulatory effects”. The strength entry in the data set with humans (setting [4]) was “increased”. Further, in the data set on human subject, the burning in muscles entry is “did not feel any burning in their muscles” and the endurance entry was “greatly increased”.
